Experimental data taken from patent publication US6465615B1 (AstraZeneca AB, priority 2001, dated 2002).
“Also recorded” adds a separate entry of the source.

Tests used:
[1] = cited from earlier work
[2] = Stability / hygroscopicity at ambient room temperature and humidity; format: physicochemical; conditions: for stability at standard room temperature and humidity (ambient conditions): Preparation 3 after about 5 hours standing, TGA
Method: The partially dehydrated material was allowed to stand for about 5 hours.

[3] = Solubility measured visually; conditions: relative to crystalline lisinopril dihydrate (Zestril)

SMILES: NCCCC[C@H](N[C@@H](CCc1ccccc1)C(=O)O)C(=O)N1CCC[C@H]1C(=O)O [lisinopril]
- time to peak serum concentrations ([1]; following oral administration): ≤ 7 h
- effective half-life of accumulation ([1]; multiple dosing): about 12.6 hours

SMILES: NCCCC[C@H](N[C@@H](CCc1ccccc1)C(=O)O)C(=O)N1CCC[C@H]1C(=O)O [monohydrate lisinopril form 2, 1-(N^2-[(S)-1-carboxy-3-phenylpropyl]-L-lysyl)-L-proline]
- stability at standard room temperature and humidity (ambient conditions) [2]: stable
- solubility compared with lisinopril dihydrate [3]: far greater solubility; also recorded: much more soluble; also recorded: substantially more soluble
- solubility (physchem): 400 to 450 mg/mL

SMILES: NCCCC[C@H](N[C@@H](CCc1ccccc1)C(=O)O)C(=O)N1CCC[C@H]1C(=O)O.O [monohydrate lisinopril form 1]
- stability at standard room temperature and humidity (ambient conditions) ([2]; listed as form 1): stable

SMILES: NCCCC[C@H](N[C@@H](CCc1ccccc1)C(=O)O)C(=O)N1CCC[C@H]1C(=O)O.O [Preparation 3]
- stability at standard room temperature and humidity (ambient conditions) [2]: not a stable monohydrate
- hygroscopicity ([2]; crystals returned to room temperature after heating, evolved water reabsorbed from atmosphere): strongly hygroscopic
